Test results from patent publication US20200069617A1, “USE OF N-ACETYLCYSTEINE AMIDE IN THE TREATMENT OF ACETAMINOPHEN OVERDOSE” (priority 2015, published 2020).

Columns and labels:
[1] = system: APAP overdose; experiment: Survival of mice after APAP overdose; assay type: in vivo, C57 BL/6 mice; details: FIG. 10
Description: Studies were then performed where C57 BL/6 mice received APAP overdose of 500 mg/kg. NACA or NAC was administered (106 mg/kg) 1.5 hours post APAP and at every 12 hours thereafter until 72 hours. The APAP group had 6 mice and the NAC and NACA groups contained 4. Mice treated with NACA/APAP survived for 150 hours, while mice treated with APAP or NAC/APAP had 60% and 30% survival respectively (FIG. 10).

[2] = system: APAP-induced hepatotoxicity; experiment: Protective effects in APAP-induced hepatotoxicity (oxidative stress and organ injury markers); assay type: in vivo, C57BL/6 mice
Description: Studies were then performed to evaluate the protective effects of NACA in APAP-induced hepatotoxicity using male C57BL/6 mice that were intraperitoneally injected with 400 mg/kg of APAP after 15 hours of fasting. The therapeutic potentials of NAC and NACA were compared by administering NAC/NACA (106 mg/kg) after 1.5 hours of APAP administration and sacrificing the mice 4 hours after the APAP administration. The GSH/GSSG ratio, a crucial antioxidant parameter, and malondialdehyde (MDA) levels were measured in liver tissue.
Alanine aminotransferase (ALT) and glutamate dehydrogenase levels were also measured in serum (FIG. 3). These are markers of livery injury.

For `CC(=O)N[C@@H](CS)C(=O)O` [NAC, N-acetylcysteine], the survival ([1]; APAP 500 mg/kg, 106 mg/kg 1.5 hours post APAP and every 12 hours until 72 hours) was 30%.
For `CC(=O)Nc1ccc(O)cc1` [APAP, N-acetyl-p-aminophenol], the survival ([1]; APAP overdose of 500 mg/kg alone) was 60%, the “oxidative stress in a number of tissues” value ([2]; APAP administration) was “increases” and the “liver injury (serum ALT and glutamate dehydrogenase levels)” value ([2]; APAP alone, FIG. 3) was “causes liver injury”. For the same molecule, the “blood urea nitrogen (BUN)” value ([2]; APAP alone, FIG. 9) was “increases” and the “serum creatine kinase (CK)” value ([2]; APAP alone, FIG. 9) was “increases”.
